Source: patent US9233079B2, “Method for producing nanocapsules in the absence of an organic solvent, and nanocapsules produced thereby” (UNIVERSITE CLAUDE BERNARD LYON I, priority 2008, dated 2016)

Experiment: Saturation concentration of chlorhexidine base in water
Assay type: physicochemical
Procedure: The size and the zeta potential of the nanocapsules, determined using a Zetamaster® S, are 450 nm and −40 mV, respectively. The concentration of free (i.e. nonencapsulated) chiorhexidine in the nanocapsule suspension was determined after filtration of the colloidal suspension through a 0.22 μm filter. After dilution in distilled water, the concentration of chiorhexidine base free in the filtrate, determined by high performance liquid chromatography (HPLC) (H. Lboutounne, V. Faivre, F. Faison, and F. Pirot, Skin Pharmacology and Applied Skin Physiology 17: 176-182 (2004); H. Lboutounne, J.-F. Chaulet, C. Ploton, F. Faison, and F. Pirot Journal of Controlled Release 82: 319-334 (2002); D. T. T. Nhung, A.-M. Freydiere, H. Constant, F. Faison, and F. Pirot International Journal of Pharmaceutics 334:166-172 (2007)), was in the region of 0.008%, i.e. the saturation concentration of chiorhexidine base in water. The concentration of encapsulated chlorhexidine base was determined by virtue of the difference between the total concentration of chlorhexidine base in the suspension and the concentration of free chlorhexidine. The total concentration of encapsulated chiorhexidine base was determined after dilution of an aliquot of colloidal suspension in a mixture of acetonitrile/sodium acetate (30 mM) (50/50, v/v). […]

- saturation concentration of chlorhexidine base in water: ~0.008%
Compound: N=C(NCCCCCCNC(=N)NC(=N)Nc1ccc(Cl)cc1)NC(=N)Nc1ccc(Cl)cc1 [chlorhexidine base, Chlorhexidine base]
